In publication PMC7914897, “Cytotoxic Potential of a-Azepano- and 3-Amino-3,4-SeCo-Triterpenoids” (International Journal of Molecular Sciences, 2021):
Where two headings read alike, the source gives them in different places.

Experiments:
[1] = tested on: Renal Cancer subpanel; assay: NCI-60 screen, subpanel; conditions: Homo sapiens
[2] = tested on: MDA-MB-31/ATCC (Breast cancer); assay: NCI-60 screen (SRB, 48 h); conditions: Homo sapiens
[3] = tested on: UACC-257 (Melanoma); assay: NCI-60 screen (SRB, 48 h); conditions: Homo sapiens
[4] = tested on: HCC-2998 (Colon cancer); assay: NCI-60 screen (SRB, 48 h); conditions: Homo sapiens
[5] = tested on: SF-268 (CNS cancer); assay: NCI-60 screen (SRB, 48 h); conditions: Homo sapiens
[6] = tested on: OVCAR-3 (Ovarian cancer); assay: cells; conditions: Homo sapiens
[7] = tested on: IGROV1 (Ovarian cancer); assay: NCI-60 screen (SRB, 48 h); conditions: Homo sapiens
[8] = tested on: panel of approximately 60 cancer cell lines; assay: NCI-60 screen (SRB, 48 h), full panel
[9] = tested on: TK-10 (Renal cancer); assay: NCI-60 screen (SRB, 48 h); conditions: Homo sapiens
[10] = tested on: Leukemia subpanel; assay: cells; conditions: Homo sapiens
[11] = tested on: HS 578T (Breast cancer); assay: NCI-60 screen (SRB, 48 h); conditions: Homo sapiens
[12] = tested on: DU-145 (Prostate cancer); assay: NCI-60 screen (SRB, 48 h); conditions: Homo sapiens
[13] = tested on: COLO 205 (Colon cancer); assay: NCI-60 screen (SRB, 48 h); conditions: Homo sapiens
[14] = tested on: OVCAR-8 (Ovarian cancer); assay: NCI-60 screen (SRB, 48 h); conditions: Homo sapiens
[15] = tested on: SNB-19 (CNS cancer); assay: NCI-60 screen (SRB, 48 h); conditions: Homo sapiens
[16] = tested on: CAKI-1 (Renal cancer); assay: NCI-60 screen (SRB, 48 h); conditions: Homo sapiens
[17] = tested on: NCI-H322M (NSC lung cancer); assay: NCI-60 screen (SRB, 48 h); conditions: Homo sapiens
[18] = tested on: SK-MEL-5 (Melanoma); assay: NCI-60 screen (SRB, 48 h); conditions: Homo sapiens
[19] = tested on: HCT-15 (Colon cancer); assay: NCI-60 screen (SRB, 48 h); conditions: Homo sapiens
[20] = tested on: UACC-62 (Melanoma); assay: NCI-60 screen (SRB, 48 h); conditions: Homo sapiens
[21] = tested on: PC-3 (Prostate cancer); assay: NCI-60 screen (SRB, 48 h); conditions: Homo sapiens
[22] = tested on: HOP-62 (NSC lung cancer); assay: NCI-60 screen (SRB, 48 h); conditions: Homo sapiens
[23] = tested on: NCI-H23 (NSC lung cancer); assay: NCI-60 screen (SRB, 48 h); conditions: Homo sapiens
[24] = tested on: NCI-H522 (NSC lung cancer); assay: NCI-60 screen (SRB, 48 h); conditions: Homo sapiens
[25] = tested on: A549/ATCC (NSC lung cancer); assay: NCI-60 screen (SRB, 48 h); conditions: Homo sapiens
[26] = tested on: NCI-H226 (NSC lung cancer); assay: NCI-60 screen (SRB, 48 h); conditions: Homo sapiens
[27] = tested on: OVCAR-5 (Ovarian cancer); assay: NCI-60 screen (SRB, 48 h); conditions: Homo sapiens

For `C=C(C)[C@@H]1CC[C@]2(C)[C@H](C=CC3=C4C[C@@](C)(CO)CC[C@]4(C)CC[C@]32C)[C@@]1(C)CCCN` [Compound 20], the IC (TGI) ([1]; 48 h, read-out: TGI MG_MID) was 3.07 µM, the GI50 ([1]; read-out: GI50 MG_MID) was 1.61 µM and the CC50 ([1]; read-out: LC50 MG_MID) was 5.86 µM. The GI50 [2] was 1.77 µM, the IC (TGI) ([2]; 48 h, read-out: TGI) was 3.27 µM and the CC50 ([2]; read-out: LC50) was 6.02 µM. The GI50 ([3]; UACC-257) was 1.82 µM, the IC (TGI) ([3]; UACC-257, 48 h, read-out: TGI) was 3.65 µM and the CC50 ([3]; UACC-257, read-out: LC50) was 7.14 µM. For the same molecule, the GI50 ([4]; HCC 2998) was 0.79 µM, the IC (TGI) ([4]; HCC 2998, 48 h, read-out: TGI) was 2.14 µM and the CC50 ([4]; HCC 2998, read-out: LC50) was 4.97 µM. For the same molecule, the GI50 ([5]; SF-268) was 1.61 µM, the IC (TGI) ([5]; SF-268, 48 h, read-out: TGI) was 3.25 µM and the CC50 ([5]; SF-268, read-out: LC50) was 6.56 µM. For the same molecule, the GI50 ([6]; OVCAR-3) was 1.48 µM, the IC (TGI) ([6]; OVCAR-3, 48 h, read-out: TGI) was 2.85 µM and the CC50 ([6]; OVCAR-3, read-out: LC50) was 5.46 µM. It also gave a GI50 ([7]; IGROV-1) of 1.5 µM, an IC (TGI) ([7]; IGROV-1, 48 h, read-out: TGI) of 2.95 µM and a CC50 ([7]; IGROV-1, read-out: LC50) of 5.8 µM. For the same molecule, the “Positive Cytostatic Effect (cell lines with percent growth 0 to 50 / total)” value ([8]; 1 dose 10 µM) was 8/60, the “Positive Cytotoxic Effect (cell lines with percent growth < 0 / total)” value ([8]; 1 dose 10 µM) was 46/60 and the “number of cancer cell lines the compound was active against” value ([8]; 1 dose 10 µM) was 52 cell lines. The activity at 10 µM ([8]; Homo sapiens, 48 h, read-out: Mean Growth, %) was -36.5%, the activity at 10 µM ([8]; Homo sapiens, 48 h, read-out: Range of Growth, %) was -100 to 90.8% and the IC (TGI) ([8]; Homo sapiens, 48 h, read-out: TGI MG_MID60, average over all cell lines) was 3.36 µM. It also gave a GI50 ([8]; Homo sapiens, read-out: GI50 MG_MID60) of 1.66 µM, a GI50 ([8]; Homo sapiens, read-out: GI50 against all human tumor cell lines) of less than 3 µM and a GI50 ([8]; Homo sapiens, read-out: GI50 against the most sensitive cell lines) of 0.2 to 0.94 µM. For the same molecule, the CC50 ([8]; Homo sapiens, read-out: LC50 MG_MID60, average over all cell lines) was 17.3 µM, the GI50 ([9]; TK-10) was 1.78 µM and the IC (TGI) ([9]; TK-10, 48 h, read-out: TGI) was 3.36 µM. The CC50 ([9]; TK-10, read-out: LC50) was 6.37 µM, the IC (TGI) ([10]; 48 h, read-out: TGI MG_MID) was 4.52 µM and the GI50 ([10]; read-out: GI50 MG_MID) was 1.82 µM. The CC50 ([10]; read-out: LC50 MG_MID) was greater than 100 µM, the GI50 [11] was 1.8 µM and the IC (TGI) ([11]; 48 h, read-out: TGI) was 4.07 µM. The CC50 ([11]; read-out: LC50) was 9.2 µM, the GI50 ([12]; DU-145) was 1.72 µM and the IC (TGI) ([12]; DU-145, 48 h, read-out: TGI) was 3.15 µM. The CC50 ([12]; DU-145, read-out: LC50) was 5.78 µM, the GI50 ([13]; COLO 205) was 1.49 µM and the IC (TGI) ([13]; COLO 205, 48 h, read-out: TGI) was 3.23 µM. For the same molecule, the CC50 ([13]; COLO 205, read-out: LC50) was 6.96 µM, the GI50 ([14]; OVCAR-8) was 2.13 µM and the IC (TGI) ([14]; OVCAR-8, 48 h, read-out: TGI) was 4.61 µM. It also gave a CC50 ([14]; OVCAR-8, read-out: LC50) of 10 µM, a GI50 ([15]; SNB-19) of 1.75 µM and an IC (TGI) ([15]; SNB-19, 48 h, read-out: TGI) of 3.17 µM. For the same molecule, the CC50 ([15]; SNB-19, read-out: LC50) was 5.74 µM, the GI50 ([16]; CAKI-1) was 1.52 µM and the IC (TGI) ([16]; CAKI-1, 48 h, read-out: TGI) was 2.85 µM. For the same molecule, the CC50 ([16]; CAKI-1, read-out: LC50) was 5.34 µM, the GI50 [17] was 1.57 µM and the IC (TGI) ([17]; 48 h, read-out: TGI) was 2.91 µM. It also gave a CC50 ([17]; read-out: LC50) of 5.43 µM, a GI50 ([18]; SK-MEL-5) of 1.72 µM and an IC (TGI) ([18]; SK-MEL-5, 48 h, read-out: TGI) of 3.19 µM. For the same molecule, the GI50 ([19]; HCT-15) was 1.53 µM, the IC (TGI) ([19]; HCT-15, 48 h, read-out: TGI) was 2.92 µM and the CC50 ([19]; HCT-15, read-out: LC50) was 5.56 µM. It also gave a GI50 ([20]; UACC-62) of 1.78 µM, an IC (TGI) ([20]; UACC-62, 48 h, read-out: TGI) of 3.17 µM and a CC50 ([20]; UACC-62, read-out: LC50) of 5.66 µM. For the same molecule, the GI50 ([21]; PC-3) was 1.7 µM, the IC (TGI) ([21]; PC-3, 48 h, read-out: TGI) was 3.28 µM and the CC50 ([21]; PC-3, read-out: LC50) was 6.33 µM. For the same molecule, the GI50 ([22]; HOP-62) was 1.98 µM, the IC (TGI) ([22]; HOP-62, 48 h, read-out: TGI) was 4.04 µM and the GI50 ([23]; NCI-H23) was 1.77 µM. For the same molecule, the IC (TGI) ([23]; NCI-H23, 48 h, read-out: TGI) was 3.32 µM, the CC50 ([23]; NCI-H23, read-out: LC50) was 6.24 µM and the GI50 ([24]; NCI-H522) was 1.83 µM. It also gave an IC (TGI) ([24]; NCI-H522, 48 h, read-out: TGI) of 3.63 µM, a GI50 ([25]; A549) of 1.6 µM and an IC (TGI) ([25]; A549, 48 h, read-out: TGI) of 3.18 µM. For the same molecule, the CC50 ([25]; A549, read-out: LC50) was 6.34 µM, the GI50 ([26]; NCI-H226) was 1.85 µM and the IC (TGI) ([26]; NCI-H226, 48 h, read-out: TGI) was 3.66 µM. It also gave a GI50 ([27]; OVCAR-5) of 1.71 µM, an IC (TGI) ([27]; OVCAR-5, 48 h, read-out: TGI) of 3.06 µM and a CC50 ([27]; OVCAR-5, read-out: LC50) of 5.57 µM.
